In a melting point compilation (Tetko et al.; mined from patent text by program, amines drawn as free bases though some values may be those of a salt):

| SMILES | melting point [°C] |
| --- | --- |
| O=c1c2ccc(Cl)cc2[nH]n2cccc12 | > 300 |
| CC(C)(C)c1ccc(Nc2cccc(Br)n2)c(N)c1 | 125 to 128 |
| CNc1nc(OC)c(C(=O)OC)cc1Br | 136 to 138 |
| NC(=O)C(F)(F)C(F)(F)C(F)(F)C(F)(F)C(F)(F)C(F)(F)C(F)(F)F | 136 to 137 |
| COc1ccc(C(=O)Nc2c(Cl)cncc2Cl)c2c1oc1ccncc12 | > 260 |
| COC(=O)C1=C(C#N)NC(C)=C(C(=O)OCC(C)(C)C)C1c1ccccc1C#N (stereo not given) | 173 to 174 |
| CN(C)CCNc1nccc(N2CCCCCC2)n1 | 53 to 54.5 |
| CCCn1cc(C2(c3cccc(-c4cccnc4F)c3)N=C(N)N(C)C2=O)cc1C(=O)CC (stereo not given) | 118 |
| Nc1nc(-c2cc(Cl)ccc2Cl)nc(N2CCCC(O)C2)n1 (stereo not given) | 178 to 180 |
| Nc1c([N+](=O)[O-])cnn1-c1ncc(Cl)cc1Cl | 194 |
| Cc1cc2c(NCc3ccc4c(c3)OCO4)nc(Cl)nc2s1 | 162 |
| CC(Oc1ncn(-c2cccc(C(F)(F)F)c2)n1)C(=O)N(C)C (stereo not given) | 126 to 127 |
| C#CCN1C(=O)COc2cc(F)c(N(C(=O)CCl)C(=O)C3=C(C(=O)OC)CCCC3)cc21 | 156 to 158 |
| O=C(Nc1ccccc1S(=O)(=O)c1ccccc1)N[C@@H](Cc1ccc(NC(=O)c2ccc(Cl)nc2Cl)cc1)C(=O)O | 207 |
| CCC1C(C)=NN=C(c2ccc(O)c(OC)c2)c2cc(OC)c(OC)cc21 (stereo not given) | 130 to 132 |
| CN(C)C(=O)c1c(F)cccc1I | 86 to 89 |
| Cc1c[nH]c2c(Sc3nc4cc(Cl)ccc4[nH]3)ccc(N)c12 | 229 to 230 |
| CCOC(=O)N(C)C(=O)N(O)C(C)c1cc(C)sc1C (stereo not given) | 111 to 112 |
| CCC(=O)Oc1ccc(CC(=O)O)cc1C(C)(C)C | 55.5 to 56.5 |
| O=C(O)c1c(C(F)(F)F)nc2c(C(F)(F)F)cccc2c1O | 188 |
| O=c1ccn(C2C=CC(COC(c3ccccc3)(c3ccccc3)c3ccccc3)O2)c(=O)[nH]1 (stereo not given) | 188 to 191 |

| SMILES | melting point [°C] |
| --- | --- |
| N#Cc1c(N2CCCC2)c(F)cc2c(=O)c(C(=O)O)cn(C3CC3)c12 | 274 to 276 |
| Cc1cc(C)cc(Sc2c(C(C)C)c(=O)[nH]c(=O)n2CC2=CCCC2CO)c1 (stereo not given) | 66 to 68 |
| COC(=O)c1ccc(-c2cc(=O)c3ccc(N)cc3o2)cc1 | > 260 |
| O=c1c(F)cn(C2CCCO2)c(=O)n1C1CCCO1 (stereo not given) | 105 to 108 |
| O=[N+]([O-])C(F)(CCc1nnc(C(F)(F)C(F)(F)F)o1)[N+](=O)[O-] | 3 to 5 |
| COc1ccc(C(=O)CCC(=O)O)c2c1OC(C)(C)C2 | 125 to 126 |
| COc1cc2c(Nc3cccc(N(C)C)c3)c(C#N)cnc2c(OC)c1OC | 142 to 144 |
| CC(C)=CC(=O)N[C@H]1CC[C@H](CCN2CCN(c3nccc4c3OCC4)CC2)CC1 | 184 |
| O=[N+]([O-])c1ccc(Cl)c(N=C2NCCCN2)c1 | 189 to 191 |
| CCON=Cc1cc(-n2c(=O)n(C)c(=S)n(C)c2=O)ccc1Cl | 139 to 141 |
| Oc1c(Cl)cc(C2=NCCO2)cc1Cl | 189 to 191 |
| CC1(c2nn(-c3ccc([N+](=O)[O-])cc3Cl)c(=O)o2)CC1 | 95 to 97 |
| CCN(C)C(=O)Nc1ccc2c(c1Cl)C(c1ccccc1F)=NCC(=O)N2C | 184 to 186 |
| CCNC(=O)NCc1cccc2c1C(=O)N(C1(C)CCC(=O)NC1=O)C2=O (stereo not given) | 220 to 222 |
| CC(C)(C)c1nc(O)cc(OC(F)F)n1 | 156 |
| COc1cc2c(cc1O)CCN(C(C)=O)C2 | 139 to 140 |
| FC(F)(F)c1cccc(CCc2nnc(-c3ccc4nccn4c3)o2)c1 | 152 to 153 |
| O=C(N1CCCCCC1)N1CC(Oc2cccc(C(F)(F)F)c2)C1 | 64.5 to 66 |
| CN1CC(CN2C(=O)c3ccccc3C2=O)CC2c3cc(C(C)(C)C)cc4[nH]cc(c34)CC21 (stereo not given) | 132 to 137 |
| O=c1c2cc3ccccc3cc2oc2cc(OCC3CS3)cc(O)c12 (stereo not given) | 189 to 190 |
| CS(=O)(=O)Nc1ccc(N)cn1 | 199 to 202 |

The remaining lines, values ahead:

| melting point [°C] | SMILES |
| --- | --- |
| 118 to 119 | Cc1nc(-c2ccccc2C(F)(F)F)c(CCC(=O)O)o1 |
| 115 to 117 | CCOC(=O)CN1CCc2c(sc(N)c2C(=O)c2ccccc2)C1 |
| 72 to 76 | C=CCNC(=O)N1CC(Oc2ccccn2)C1 |
| 258 to 260 | Cc1c(Cc2ccccc2)c(=O)oc2cc(O)cc(O)c12 |
| 261 to 262 | OCc1ccc2c(ccc3c4ccccc4ccc23)c1 |
| 94 to 96 | CCCCc1c(C(=O)OCC)cc(Oc2nnnn2-c2ccccc2)c2ccc(OC)cc12 |
| 109 to 110 | O=C(O)[C@H](Cc1cccc(OC(F)(F)C(F)F)c1)[C@@H](O)c1ccc(Oc2ccccc2)cc1 (racemic) |
| 139 to 140 | COc1cccc2c(=O)cc(-c3ccccc3SCc3ccccc3)[nH]c12 |
| 176 to 177 | CCCC[C@H]1CC[C@H](OC(=O)c2cc(Sc3ccc(C)cc3)c3c(c2N)C(=O)c2ccccc2C3=O)CC1 |
| 208 to 210 | Cc1nc(-c2ccc(=O)n(C(C)C)n2)c(-c2ccccc2)nc1N |
| 158 to 160 | CC(C)(C)OC(=O)NCCN(CCC12CC3CC(CC(C3)C1)C2)C(=O)NCCCc1ccncc1 |
| 271 to 273 | COC(=O)c1ccccc1C=C1C(=O)Nc2ccc(S(=O)(=O)NC(C)C)cc21 |
| 69 to 71 | C=CC(=O)NCCCCCCCCCCCCOc1ccccc1 |
| 121 to 122 | COc1ccc(-n2nc(OC(C)C)cc2-c2ccc(OCCNS(C)(=O)=O)cc2)cn1 |
| 160 to 161 | COc1cccc(Oc2c(NS(=O)(=O)c3ccc(C(C)(C)C)cc3)ncnc2OCCOc2ncc(-c3ccccc3)cn2)c1 |
| 164 to 166 | COC(=O)C1=C(C)NC(C)=C(C(=O)OC)C1c1ccccc1-c1ccsc1 |
| 126 to 128 | CCN(CC)CC(=O)Nc1cccc(-c2cc(-c3ccc(F)cc3OCOC)nc(NC(=O)c3ccco3)c2C#N)c1 |
| 110 to 112 | CCCCCCCCCCCc1cc2ccc(C(=O)OCC(O)CO)cc2[nH]1 (racemic) |
| 185 to 186 | CCCn1nc2c(N)nc3ccccc3c2c1CCNC(C)=O |
| 181 to 182 | Cc1oc(-c2ccco2)nc1COc1ccc(COc2nn(Cc3ccccc3)cc2C(=O)O)cc1-c1ccccc1 |
| 123 to 126 | Cc1nc(C)c(Cl)c(NCc2nccc(SCCCN3CCN(CC4CN(Cc5ccncc5)C(=O)O4)CC3)c2C)n1 (stereo not given) |
| 107 to 110 | CCOC(=O)C1=C(COCc2nc(C)cs2)NC(C)=C(C(=O)OC)C1c1ccccc1Cl (stereo not given) |
| 75 to 77 | CN(C)CCC1CCc2cc(OCc3cc4ccccc4o3)ccc2C1 (single isomer, unassigned; (+)) |
| 108 | CCCCCCCCCCCCCCCc1cc(=O)c2c(O)cc(O)cc2o1 |
| 144 to 145 | Cn1cc(Oc2ccccc2)c(=O)c(-c2cccc(C(F)(F)F)c2)c1 |
| 193 to 195 | CCc1nnc2c(NC(C)=O)nc3ccccc3n12 |
| 128 | O=c1n(Cc2ccccc2)c2cc(Cl)ccc2n1C1CCNCC1 |
| 82 to 84 | CCC(c1ccccn1)N(Cc1ccc(C(=O)OC)cc1)S(=O)(=O)c1ccc(F)cc1 (stereo not given) |
